US8067424B2, “Selective inhibitors for cyclin-dependent kinases” (Emory University, priority 2007, dated 2011)
Like-named read-outs stand apart in the source and are kept apart here.

Columns and labels:
Type in all cases: biochemical
JNK2 = JNK2 (Homo sapiens, UniProt P45984); test: Kinase screen: JNK2 assay
Method: (§1) Generally, the same procedure was used for all assays. Since the total assay volume was 25.5 microliters, 0.5 microliters of inhibitors at 51× assay concentration were added to the plates before any other addition.
(§2) The basic procedure was to add 0.5 microliters inhibitor/control in DMSO to plate. Fifteen microliters of enzyme/substrate/buffer mix were added and incubated for 5 min. Ten microliters MgATP at the relevant concentration were added and incubated for 30 min. The assay was stopped by adding 5 microliters of 3% orthophosphoric acid. The assay was transferred to a p81 filter plate and read in a scintillation counter of 30 sec/well. Note that this assay procedure was not followed for MKK1, which instead involved a two-step assay, and PKC alpha, which required the addition of lipid vesicles.
JNK2 assay: JNK2 1(5-20 mU diluted in 50 mM Tris (pH 7.5), 0.1 mM EGTA, 1 mg/ml BSA, 0.1% b-mercaptoethanol) was assayed against ATF2 (activating transcription factor in a final volume of 25.5 μl in 50 mM Tris pH 7.5, 0.1 mM EGTA, 0.1% b-Mercaptoethanol, ATF2 (3 μM), 10 mM magnesium acetate and 0.02 mM [33P-g-ATP] (500-1000 cpm/pmole) and incubated for 30 min at room temperature. Assays were stopped by addition of 5 μl of 0.5 M (3%) orthophosphoric acid and then harvested onto P81 Unifilter plates with a wash buffer of 50 mM orthophosphoric acid.

PKBβ = molecular target: T1, PKBβ (Homo sapiens, UniProt P31751, S474D); test: Kinase screen: ΔPH-PKBbeta (S474D) assay
T1 construct: ΔPH-PKBbeta (S474D) assay: ΔPH-PKBbeta-S474D (5-20 mU diluted)
Method: as §1, §2
ΔPH-PKBbeta (S474D) assay: ΔPH-PKBbeta-S474D (5-20 mU diluted in 50 mM Tris pH 7.5, 0.1 mM EGTA, 0.1% b-mercaptoethanol, 1 mg/ml BSA) was assayed against a modified Crosstide peptide ([…]) (SEQ ID NO: 4) in a final volume of 25.5 μl containing 50 mM Tris pH 7.5, 0.05% b-mercaptoethanol, 30 μM substrate peptide, 10 mM magnesium acetate and 0.05 mM [33P-g-ATP] (50-1000 cpm/pmole) and incubated for 30 min at room temperature. Assays were stopped by addition of 5 μl of 0.5 M (3%) orthophosphoric acid and then harvested onto P81 Unifilter plates with a wash buffer of 50 mM orthophosphoric acid.

MNK1 = MNK1 (Homo sapiens, UniProt Q9BUB5); test: Kinase screen: MNK1 assay
Method: as §1, §2
MNK1 assay: 5-20 mU of MNK1 (diluted in 50 mM Tris (pH 7.5), 0.1 mM EGTA, 1 mg/ml BSA, 0.1%, b-Mercaptoethanol) was assayed against substrate peptide (eIF4E) in a final volume of 25.5 μl containing 50 mM Tris (pH 7.5), 0.1 mM EGTA, 0.1%, b-Mercaptoethanol, 0.5 mg/ml substrate peptide, 10 mM magnesium acetate and 0.05 mM [33P-g-ATP](500-1000 cpm/pmole) and incubated for 30 mins at room temperature. Assays were stopped by addition of 5 μl of 0.5M (3%) orthophosphoric acid. Assays were harvested onto P81 Unifilter plates using a wash buffer of 50 mM orthophosphoric acid.

MARK3 = MARK3 (Homo sapiens, UniProt P27448); test: Kinase screen: MARK3 assay
Method: as §1, §2
MARK3 assay: MARK3 (5-20 mU diluted in 50 mM Tris pH 7.5, 0.1 mM EGTA, 0.1% b-mercaptoethanol, 1 mg/ml BSA) was assayed against CHKtide substrate ([…]) (SEQ ID NO: 12) in a final volume of 25.5 μl containing 50 mM Tris pH 7.5, 0.05% b-mercaptoethanol, 300 μM substrate peptide, 10 mM magnesium acetate and 0.005 mM [33P-g-ATP] (50-1000 cpm/pmole) and incubated for 30 min at room temperature. Assays were stopped by addition of 5 μl of 0.5 M (3%) orthophosphoric acid and then harvested onto P81 Unifilter plates with a wash buffer of 50 mM orthophosphoric acid.

MST4 = MST4 (Homo sapiens, UniProt Q9P289); test: Kinase screen: MST4 assay; details: 10 micromolar compound; for remaining activity at 10 µM: read-out: mean activity remaining (as a percentage of the original activity), MST4
Method: as §1, §2
MST4 assay: 5-20 mU of MST4 (diluted in 50 mM Tris (pH 7.5), 0.1 mM EGTA) was assayed against MBP in a final volume of 25.5 μl containing 50 mM Tris (pH 7.5), 0.1 mM EGTA, 0.33 mg/ml MBP, 10 mM magnesium acetate and 0.02 mM [33P-g-ATP] (500-1000 cpm/pmole) and incubated for 30 mins at room temperature. Assays were stopped by addition of 5 μl of 0.5M (3%) orthophosphoric acid. Assays were harvested onto P81 Unifilter plates using a wash buffer of 50 mM orthophosphoric acid.

SYK = SYK (Homo sapiens, UniProt P43405); test: Kinase screen: SYK assay; details: 10 micromolar compound; for remaining activity at 10 µM: read-out: mean activity remaining (as a percentage of the original activity), SYK
Method: as §1, §2
SYK assay: SYK (5-20 mU diluted in 50 mM Tris pH 7.5, 0.1 mM EGTA, 1 mg/ml BSA) was assayed against a substrate peptide (Poly Glut Tyr) in a final volume of 25.5 μl containing 50 mM Tris pH 7.5, 1 mg/ml substrate peptide, 10 mM magnesium acetate and 0.02 mM [33P-g-ATP] (50-1000 cpm/pmole) and incubated for 30 min at room temperature. Assays were stopped by addition of 5 μl of 0.5 M (3%) orthophosphoric acid and then harvested onto P81 Unifilter plates with a wash buffer of 50 mM orthophosphoric acid.

BTK = BTK (Homo sapiens, UniProt Q06187); test: Kinase screen: BTK assay; details: 10 micromolar compound; for remaining activity at 10 µM: read-out: mean activity remaining (as a percentage of the original activity), BTK
Method: as §1, §2
(50-1000 cpm/pmole) and incubated for 30 min at room temperature. Assays were stopped by addition of 5 μl of 0.5 M (3%) orthophosphoric acid and then harvested onto P81 Unifilter plates with a wash buffer of 50 mM orthophosphoric acid.

[1] = 10 micromolar compound, read-out: mean activity remaining (as a percentage of the original activity), JNK2
[2] = 0.5 h, 10 micromolar compound, read-out: mean activity remaining (as a percentage of the original activity), PKBb
[3] = 10 micromolar compound, read-out: mean activity remaining (as a percentage of the original activity), MNK1
[4] = 10 micromolar compound, read-out: mean activity remaining (as a percentage of the original activity), MARK 3

T1 sequence (P31751 120-481 S474D limits assumed, species assumed): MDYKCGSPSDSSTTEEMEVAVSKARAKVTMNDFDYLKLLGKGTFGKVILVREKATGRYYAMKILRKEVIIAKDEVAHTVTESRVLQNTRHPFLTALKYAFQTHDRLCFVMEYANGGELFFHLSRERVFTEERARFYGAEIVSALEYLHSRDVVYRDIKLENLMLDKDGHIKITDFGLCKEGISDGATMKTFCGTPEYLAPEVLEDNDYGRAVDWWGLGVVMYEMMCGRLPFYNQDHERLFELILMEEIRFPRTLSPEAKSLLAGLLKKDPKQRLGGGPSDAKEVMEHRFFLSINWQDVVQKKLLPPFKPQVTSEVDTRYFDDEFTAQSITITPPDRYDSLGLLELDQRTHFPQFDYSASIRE
JNK2, sequence (P45984 whole entry, species assumed): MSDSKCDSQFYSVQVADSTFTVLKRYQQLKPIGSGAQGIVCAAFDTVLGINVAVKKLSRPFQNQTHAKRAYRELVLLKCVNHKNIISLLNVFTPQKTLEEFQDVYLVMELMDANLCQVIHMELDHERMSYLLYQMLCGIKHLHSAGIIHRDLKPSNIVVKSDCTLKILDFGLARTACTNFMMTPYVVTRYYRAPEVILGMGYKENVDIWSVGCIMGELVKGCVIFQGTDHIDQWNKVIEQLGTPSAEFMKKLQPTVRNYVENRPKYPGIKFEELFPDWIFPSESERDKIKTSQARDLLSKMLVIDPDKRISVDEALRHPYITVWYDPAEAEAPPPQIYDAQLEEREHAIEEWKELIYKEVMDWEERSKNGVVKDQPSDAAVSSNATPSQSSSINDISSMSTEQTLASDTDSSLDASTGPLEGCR
MNK1, sequence (Q9BUB5 whole entry, species assumed): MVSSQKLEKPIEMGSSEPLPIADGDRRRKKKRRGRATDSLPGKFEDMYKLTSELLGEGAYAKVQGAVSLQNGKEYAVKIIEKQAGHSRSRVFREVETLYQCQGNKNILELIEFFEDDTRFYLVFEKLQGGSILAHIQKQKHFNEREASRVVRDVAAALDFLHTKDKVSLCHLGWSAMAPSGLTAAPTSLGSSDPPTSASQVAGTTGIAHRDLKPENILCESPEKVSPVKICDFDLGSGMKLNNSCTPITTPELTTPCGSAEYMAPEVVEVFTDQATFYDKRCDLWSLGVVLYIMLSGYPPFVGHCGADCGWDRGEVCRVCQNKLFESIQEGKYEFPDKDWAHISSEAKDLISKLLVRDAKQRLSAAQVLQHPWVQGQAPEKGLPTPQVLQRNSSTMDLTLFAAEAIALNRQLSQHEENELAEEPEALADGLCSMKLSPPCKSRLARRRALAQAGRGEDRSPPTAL
BTK, sequence (Q06187 whole entry, species assumed): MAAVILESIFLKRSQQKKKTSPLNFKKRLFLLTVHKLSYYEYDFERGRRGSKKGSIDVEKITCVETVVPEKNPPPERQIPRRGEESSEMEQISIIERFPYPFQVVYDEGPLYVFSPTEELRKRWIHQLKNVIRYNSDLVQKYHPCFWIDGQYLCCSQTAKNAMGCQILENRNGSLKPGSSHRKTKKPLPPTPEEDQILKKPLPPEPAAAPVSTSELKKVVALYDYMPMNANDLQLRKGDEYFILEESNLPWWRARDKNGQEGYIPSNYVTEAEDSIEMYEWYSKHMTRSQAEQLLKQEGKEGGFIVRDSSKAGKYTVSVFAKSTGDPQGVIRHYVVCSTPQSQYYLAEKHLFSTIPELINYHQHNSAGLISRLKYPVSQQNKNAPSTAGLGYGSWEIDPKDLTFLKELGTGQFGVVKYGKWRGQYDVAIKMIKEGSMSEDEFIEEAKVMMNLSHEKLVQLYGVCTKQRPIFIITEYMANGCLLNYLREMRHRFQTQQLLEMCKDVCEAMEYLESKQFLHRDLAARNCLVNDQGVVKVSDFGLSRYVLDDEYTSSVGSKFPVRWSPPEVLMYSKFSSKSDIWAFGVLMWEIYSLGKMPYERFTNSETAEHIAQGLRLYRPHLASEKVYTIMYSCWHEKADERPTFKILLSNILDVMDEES
MARK3, sequence (P27448 whole entry, species assumed): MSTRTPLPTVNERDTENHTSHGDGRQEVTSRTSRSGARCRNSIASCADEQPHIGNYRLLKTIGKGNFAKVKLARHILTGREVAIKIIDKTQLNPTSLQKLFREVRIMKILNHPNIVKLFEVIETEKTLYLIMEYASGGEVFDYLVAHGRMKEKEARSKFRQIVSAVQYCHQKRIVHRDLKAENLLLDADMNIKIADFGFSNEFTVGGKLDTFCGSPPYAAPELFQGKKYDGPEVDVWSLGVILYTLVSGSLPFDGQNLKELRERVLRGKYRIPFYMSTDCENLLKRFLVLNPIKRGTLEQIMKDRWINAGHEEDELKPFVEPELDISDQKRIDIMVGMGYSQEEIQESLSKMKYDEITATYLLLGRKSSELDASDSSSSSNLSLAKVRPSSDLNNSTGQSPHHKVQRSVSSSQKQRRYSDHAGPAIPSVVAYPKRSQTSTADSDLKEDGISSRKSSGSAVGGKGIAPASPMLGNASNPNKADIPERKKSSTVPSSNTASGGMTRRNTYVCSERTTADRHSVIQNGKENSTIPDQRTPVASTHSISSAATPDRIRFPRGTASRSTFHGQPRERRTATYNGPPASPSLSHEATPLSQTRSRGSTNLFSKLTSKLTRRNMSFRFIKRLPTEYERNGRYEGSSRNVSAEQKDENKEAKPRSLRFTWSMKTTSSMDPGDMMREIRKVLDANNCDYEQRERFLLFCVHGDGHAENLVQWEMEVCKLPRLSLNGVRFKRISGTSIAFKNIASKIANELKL
MST4, sequence (Q9P289 whole entry, species assumed): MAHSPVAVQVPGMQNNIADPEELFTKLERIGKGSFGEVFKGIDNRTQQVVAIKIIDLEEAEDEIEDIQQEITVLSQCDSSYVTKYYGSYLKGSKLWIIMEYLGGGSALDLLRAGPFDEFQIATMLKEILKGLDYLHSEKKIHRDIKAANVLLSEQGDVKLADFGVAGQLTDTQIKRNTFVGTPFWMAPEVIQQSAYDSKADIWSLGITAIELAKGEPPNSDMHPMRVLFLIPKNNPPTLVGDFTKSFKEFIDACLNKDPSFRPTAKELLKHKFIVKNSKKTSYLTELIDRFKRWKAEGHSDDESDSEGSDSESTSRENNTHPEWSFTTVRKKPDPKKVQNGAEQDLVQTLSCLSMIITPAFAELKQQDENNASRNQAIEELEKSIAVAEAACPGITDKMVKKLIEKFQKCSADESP

Row | SMILES | remaining activity at 10 µM (JNK2; JNK2, 10 μM, read-out: Mean Remaining Enzyme Activity (%)) [%] | remaining activity at 10 µM (PKBβ; PKBβ, 10 μM, read-out: Mean Remaining Enzyme Activity (%)) [%] | remaining activity at 10 µM (MNK1; MNK1, 10 μM, read-out: Mean Remaining Enzyme Activity (%)) [%] | remaining activity at 10 µM (MARK3; MARK3, 10 μM, read-out: Mean Remaining Enzyme Activity (%)) [%] | remaining activity at 10 µM (JNK2; [1]) [%] | remaining activity at 10 µM (PKBβ; [2]) [%] | remaining activity at 10 µM (MNK1; [3]) [%] | remaining activity at 10 µM (MARK3; [4]) [%] | remaining activity at 10 µM (MST4) [%] | remaining activity at 10 µM (SYK) [%] | remaining activity at 10 µM (BTK) [%] | mean activity remaining (as a percentage of the original activity), JNK2 (JNK2; 10 micromolar compound) [%] | mean activity remaining (as a percentage of the original activity), PKBb (PKBβ; 10 micromolar compound) [%] | mean activity remaining (as a percentage of the original activity), MNK1 (MNK1; 10 micromolar compound) [%] | mean activity remaining (as a percentage of the original activity), MARK 3 (MARK3; 10 micromolar compound) [%] | mean activity remaining (as a percentage of the original activity), MST4 (MST4) [%] | mean activity remaining (as a percentage of the original activity), SYK (SYK) [%] | mean activity remaining (as a percentage of the original activity), BTK (BTK) [%]
1 | CC(C)c1cnn2c(NCc3ccccc3)cc(NCCCCCCCN)nc12 [BS-181] | 90 | 81 | 105 | 104 | – | – | – | – | – | – | – | – | – | – | – | – | – | –
2 | C=C[C@H](CO)Nc1cc(NCc2ccccc2)n2ncc(C(C)C)c2n1 [ICEC0065] | – | – | – | – | 88 | 109 | 90 | 93 | 91 | 104 | 94 | – | – | – | – | – | – | –
3 | CC[C@H](CO)Nc1cc(NCc2ccccc2)n2ncc(C(C)C)c2n1 [ICEC0067] | – | – | – | – | 97 | 102 | 86 | 89 | 103 | 104 | 84 | – | – | – | – | – | – | –
4 | CC(C)c1cnn2c(NCc3ccccc3)cc(N[C@@H](CO)[C@H](O)CO)nc12 [ICEC0318, (3S)-3-(7-(Benzylamino)-3-isopropylpyrazolo[1,5-a]pyrimidin-5-ylamino)butane-1,2,4-triol] | – | – | – | – | 94 | 105 | 98 | 82 | 92 | 120 | 91 | – | – | – | – | – | – | –
5 | CC(C)c1cnn2c(NCc3ccccc3F)cc(NCCCCCN)nc12 [ICEC-0232] | – | – | – | – | – | – | – | – | – | – | – | 89 | 76 | 97 | 96 | 85 | 84 | 90
